4 compounds from PMC13185115, “Photovermellogens: Minimalistic Pyridinium-Based Acylhydrazones with Photoswitchable Basicity for Operation in Aqueous Media” (The Journal of Organic Chemistry, 2026) can be followed below.

Structures are written as SMILES.

Series [1] is described as follows: Photoisomerization kinetics and quantum yields of the protonated forms (UV-vis). The format is physicochemical. Conditions: for k E-PH+ to Z-PH+ photoisomerization: pH 6 (pH 5 for P bH·Cl); for Φ Z→E photoisomerization quantum yield: irradiation at 440 nm. An excerpt:
Photoisomerization studies were subsequently carried out in acidic medium (pH = pK a – 2) in order to assess the photoresponse of the protonated species. Under these conditions, the anticipated photoisomerization of the thermally stable E-P a–dH^+ species was investigated by UV–vis absorption spectroscopy under irradiation at 254 nm. […] It is noteworthy that the irradiation wavelength can be extended to 365 nm, yielding virtually the same observations as for 254 nm irradiation (see footnotes of Table ). Irradiation also produced clear NMR spectral changes that support the occurrence of the E→Z isomerization. In essence, the signals Hf–h of the phenyl moiety were only slightly affected, whereas those of the pyridinium and acylhydrazone fragments shifted markedly, consistent with the formation of an intramolecular hydrogen bond in the Z-P a–cH^+ species. The reverse Z→E transformation of the protonated forms P a–cH^+ was also achieved upon irradiation at λ > 420 nm, giving lower quantum yields and less favorable PSDs (Figures S145–S147, S149–154, S1).
5. Isomerization Photochemical Data.
5.1. E-P a-cH+→Z-P a-cH+ photoisomerization kinetics.
Figure S138. Left: variations in the absorption spectrum of P aH·Cl (20.6 µM, pH = 6) upon irradiation at 254 nm; the absorption spectrum of the E-form is shown in red; the photostationary state is in blue. Right: Kinetics (monitored at 320 nm) for the E-P aH+ to Z-P aH+ photoisomerization (20.6 µM) upon irradiation at 254 nm (I 0 = 1.37 × 10 –7 mol/s); k = 1.55 × 10 –2 […]
Figure S139. Left: variations in the absorption spectrum of P aH·Cl (17.5 µM, pH = 6) upon irradiation at 365 nm; the absorption spectrum of the E-form is shown in red; the photostationary state is in blue. Right: Kinetics (monitored at 400 nm) for the E-P aH+ to Z-P aH+ photoisomerization (17.5 µM) upon irradiation at 365 nm (I 0 = 2.6 × 10 –7 mol/s); k = 6.4 × 10 –2 […]
Figure S140. Left: variations in the absorption spectrum of P bH·Cl (7.9 µM, pH = 5) upon […]
state is in blue. Right: Kinetics (monitored at 370 nm) for the E-P bH+ to Z-P bH+ photoisomerization (7.9 µM) upon irradiation at 254 nm (I 0 = 1.41 × 10 –7 mol/s); k = 4.91 × 10 –2 […]
Figure S141. Left: variations in the absorption spectrum of P bH·Cl (10 µM, pH = 5) upon […]
state is in blue. Right: Kinetics (monitored at 420 nm) for the E-P bH+ to Z-P bH+ photoisomerization (10 µM) upon irradiation at 365 nm (I 0 = 2.0 × 10 –7 mol/s); k = 3.0 × 10 –2 s–1.
Figure S142. Left: variations in the absorption spectrum of P cH·Cl (9 µM, pH = 6) upon […]
state is in blue. Right: Kinetics (monitored at 377 nm) of the E-P cH+ to Z-P cH+ photoisomerization […]
Figure S143. Left: variations in the absorption spectrum of P cH·Cl (10 µM, pH = 6) upon […]
state is in blue. Right: Kinetics (monitored at 410 nm) of the E-P cH+ to Z-P cH+ photoisomerization

A short description of series [2]: pKa determination for the photostationary state (Z-enriched) by UV-Vis spectroscopy. The series is classed as physicochemical. The conditions noted are these: apparent acidity constant of the cationic Z form as present in the photostationary state (88–97% Z) after 254 nm irradiation; water. An excerpt: Having confirmed the photochemical behavior of the protonated forms, we next explored their light-responsiveness in the deprotonated state. […] To probe whether Z-P a–c could nonetheless be generated indirectly, we explored a consecutive photoisomerization–deprotonation sequence. Thus, E-P a–cH^+ was first irradiated at 254 nm and pH 6 to enrich the Z population, followed by immediate adjustment of the solution to pH 13. Under these conditions, transient spectroscopic features were observed, consistent with the kinetic trapping of the metastable Z-P a–c species. […] These spectroscopic observations enabled the estimation of virtual pK a values for the Z-enriched solutions (Table and Figures S163–168, SI1), which confirmed the reduced acidity of the NH group in the Z-isomers, presumably arising from intramolecular hydrogen-bond formation.
6. Determination of pK a values for the PSS by UV-Vis spectroscopy.
The concentration of P a-cH·Cl was kept constant at appropriate values in the 10-20 µM range, and that of the phosphate buffer at 20 mM. The absorption measurements of the corresponding air-equilibrated phosphate buffered aqueous solutions were carried out at room temperature (298 K), in quartz cuvettes with 1 cm optical pathlength. For the kinetic trapping of the deprotonated Z-isomers of P a-cH·Cl, a solution of the corresponding salt in phosphate buffered solution at a conveniently acidic pH/pD was irradiated at 254 nm until reaching the PSS. Then, the pH of the solution was in each case adjusted to the required final value, by addition of 40 mM stock solutions of phosphate buffer of the required composition. The reported measurements were done as fast as possible to minimize thermal back-isomerization.

[3] abbreviates: irradiation at 254 nm (I0 1.37–1.41 × 10–7 mol/s).
[4] abbreviates: irradiation at 254 nm, pH 6, error ± 20%.
Setting [5] is: irradiation at 365 nm (I0 2.0–2.6 × 10–7 mol/s).

Turning to `C[n+]1ccc(NN=CC(=O)c2ccccc2)cc1` [P aH^+], the “k E-PH+ to Z-PH+ photoisomerization” value in series [1] (setting [3]) was 1.55 10^–2 s^–1; in series [1] (setting [5]) it was 6.4 10^–2 s^–1. Besides, the “Φ E→Z photoisomerization quantum yield” value in series [1] (setting [4]) was found to be 0.20; in series [1] (irradiation at 365 nm) it was 0.22. In series [1] (pH 6, error ± 20%), the “Φ Z→E photoisomerization quantum yield” value is on record as 0.001. In addition, the “pK a (PSD)” value in series [2] stood at 10.4 ± 0.2.
As for `C[n+]1ccc(NN=CC(=O)c2ccccc2)c2ccccc21` [P bH^+], the “k E-PH+ to Z-PH+ photoisomerization” value is reported as 4.91 10^–2 s^–1 in series [1] (setting [3]) and 3.0 10^–2 s^–1 in series [1] (setting [5]). Besides, the “Φ E→Z photoisomerization quantum yield” value was found to be 0.38 in series [1] (setting [4]) and 0.35 in series [1] (irradiation at 365 nm). For the same compound, the “Φ Z→E photoisomerization quantum yield” value in series [1] (pH 6, error ± 20%) stood at 0.002. Also, the “pK a (PSD)” value in series [2] came to 8.8 ± 0.2.
On to `O=C(C=NNc1cc[n+](-c2ccccc2)cc1)c1ccccc1` [P cH^+], for which the “k E-PH+ to Z-PH+ photoisomerization” value was 4.90 10^–2 s^–1 in series [1] (setting [3]) and 2.0 10^–2 s^–1 in series [1] (setting [5]). Besides, the “Φ E→Z photoisomerization quantum yield” value in series [1] (setting [4]) and in series [1] (irradiation at 365 nm) was 0.34 in each case. In addition, the “Φ Z→E photoisomerization quantum yield” value in series [1] (pH 6, error ± 20%) amounted to 0.008. Further, the “pK a (PSD)” value in series [2] came out at 9.9 ± 0.1.
Take `C[n+]1ccc(-c2ccc(NN=CC(=O)c3ccccc3)cc2)cc1` [P dH^+]: the “E→Z photoisomerization of the protonated form (UV-vis changes)” value in series [1] (irradiation at 254 nm, acidic medium pH = pKa – 2) is “no detectable changes”.
